Data: patent US20100286145A1, “ISOPHTHALAMIDE DERIVATIVES INHIBITING BETA-SECRETASE ACTIVITY” (CoMentis, Inc., priority 2007, published 2010)
Read-outs that look alike come from different tables or passages of the source.

How the values were obtained:
memapsin 2 = memapsin 2 (Homo sapiens, UniProt P56817); assay: Inhibition of memapsin 2 beta-secretase activity (fluorogenic substrate FS-2); type: biochemical; details: memapsin 2, pH 4, 37° C., read-out: M2Ki
Procedure, shortened: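 Memapsin 2 pre-incubated 20 min with compound at pH 4, 37° C, then FS-2 substrate (MCA-SEVNLDAEFK-DNP, APP Swedish cleavage site) added. Rate of fluorescence increase compared with uninhibited controls, fitted to a tight-binding inhibition model.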

[1] = tested on: Aβ production in Chinese hamster ovary cells that over-express human APP695 with the London and Swedish mutations; assay: Cellular Aβ IC50 determination (Aβ40 sandwich ELISA); type: cell-based; details: Cricetulus griseus
Procedure, shortened: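 CHO cells overexpressing human APP695 with London and Swedish mutations, seeded at 10% confluency, treated with compounds up to about 4 μM final (0.4% DMSO). Secreted Aβ40 measured by sandwich ELISA relative to control and fitted to a 4-parameter IC50 model.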

[2] = cellular Aβ production, read-out: IC50

Chain of memapsin 2 (P56817 46-501): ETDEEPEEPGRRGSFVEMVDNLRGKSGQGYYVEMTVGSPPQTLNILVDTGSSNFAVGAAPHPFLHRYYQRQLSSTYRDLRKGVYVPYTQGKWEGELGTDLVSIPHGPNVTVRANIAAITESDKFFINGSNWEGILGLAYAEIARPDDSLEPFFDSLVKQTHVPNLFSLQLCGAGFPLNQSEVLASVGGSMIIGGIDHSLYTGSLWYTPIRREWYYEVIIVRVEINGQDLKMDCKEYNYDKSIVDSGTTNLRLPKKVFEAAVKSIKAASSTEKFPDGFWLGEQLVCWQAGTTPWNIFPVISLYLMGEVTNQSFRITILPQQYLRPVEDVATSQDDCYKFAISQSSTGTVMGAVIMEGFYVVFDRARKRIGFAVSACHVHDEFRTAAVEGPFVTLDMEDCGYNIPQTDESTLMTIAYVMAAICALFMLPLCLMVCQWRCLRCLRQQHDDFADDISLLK

## Cc1csc(CN(C)C(=O)c2cccc(C(=O)N[C@@H](Cc3ccccc3)[C@H](O)CNCc3cc(C(C)C)cnc3F)c2)n1 [Compound 56, N1-((2S,3R)-4-((2-fluoro-5-isopropylpyridin-3-yl)methylamino)-3-hydroxy-1-phenylbutan-2-yl)-N3-methyl-N3-((4-methylthiazol-2-yl)methyl)isophthalamide]
Memapsin 2; 20 minutes pre-incubation
  Ki: < 300 nM
[1]; [2]
  IC50: < 1000 nM

## COc1cccc(CNC[C@@H](O)[C@H](Cc2ccccc2)NC(=O)c2cc(C(=O)N(C)Cc3nc(C)cs3)cc(-c3ccccc3C#N)c2)c1 [Compound 140, 2′-cyano-N3-((2S,3R)-3-hydroxy-4-(3-methoxybenzylamino)-1-phenylbutan-2-yl)-N5-methyl-N5-((4-methylthiazol-2-yl)methyl)biphenyl-3,5-dicarboxamide]
Memapsin 2; 20 minutes pre-incubation
  Ki: < 300 nM
[1]; [2]
  IC50: < 1000 nM

## COc1cccc(CNC[C@@H](O)[C@H](Cc2ccccc2)NC(=O)c2cc(OS(C)(=O)=O)cc(C(=O)N[C@H](C)c3ccccc3)c2)c1 [Compound 70, 3-((2S,3R)-3-hydroxy-4-(3-methoxybenzylamino)-1-phenylbutan-2-ylcarbamoyl)-5-((R)-1-phenylethylcarbamoyl)phenyl methanesulfonate]
Memapsin 2; 20 minutes pre-incubation
  Ki: < 300 nM
[1]; [2]
  IC50: < 1000 nM

## Cc1csc(CN(C)C(=O)c2cccc(C(=O)N[C@@H](Cc3ccccc3)[C@H](O)CNCc3cc(OC(=O)N(C)C)cc(C(C)C)c3)c2)n1 [Compound 198, 3-(((2R,3S)-2-hydroxy-3-(3-(methyl((4-methylthiazol-2-yl)methyl)carbamoyl)benzamido)-4-phenylbutylamino)methyl)-5-isopropylphenyl dimethylcarbamate]
Memapsin 2; 20 minutes pre-incubation
  Ki: < 300 nM
[1]
  IC50: < 1000 nM

## C[C@@H](NC(=O)c1cc(C(=O)N[C@@H](Cc2ccccc2)[C@H](O)CNCc2cccc(C#N)c2)cc(N(C)S(C)(=O)=O)c1)c1ccccc1 [Compound 149, N1-((2S,3R)-4-(3-cyanobenzylamino)-3-hydroxy-1-phenylbutan-2-yl)-5-(N-methylmethylsulfonamido)-N3-((R)-1-phenylethyl)isophthalamide]
Memapsin 2; 20 minutes pre-incubation
  Ki: < 300 nM
[1]; [2]
  IC50: < 1000 nM

## COc1cccc(CNC[C@@H](O)[C@H](Cc2ccccc2)NC(=O)c2cc(C(=O)N(C)Cc3nc(C)cs3)cc(-c3ccccc3)c2)c1 [Compound 78, N3-((2S,3R)-3-hydroxy-4-(3-methoxybenzylamino)-1-phenylbutan-2-yl)-N5-methyl-N5-((4-methylthiazol-2-yl)methyl)biphenyl-3,5-dicarboxamide]
Memapsin 2; 20 minutes pre-incubation
  Ki: < 300 nM
[1]; [2]
  IC50: < 1000 nM

## Cc1csc(CN(C)C(=O)c2cccc(C(=O)N[C@@H](Cc3ccccc3)[C@H](O)CNCc3cc(C(=O)O)cc(N(C)S(C)(=O)=O)c3)c2)n1 [Compound 139, 3-(((2R,3S)-2-hydroxy-3-(3-(methyl((4-methylthiazol-2-yl)methyl)carbamoyl)benzamido)-4-phenylbutylamino)methyl)-5-(N-methylmethylsulfonamido)benzoic acid]
Memapsin 2; 20 minutes pre-incubation
  Ki: < 300 nM
[1]; [2]
  IC50: < 1000 nM

## COC(=O)c1cc(CNC[C@@H](O)[C@H](Cc2ccccc2)NC(=O)c2cccc(C(=O)N(C)Cc3nc(C)cs3)c2)cc(N(C)S(C)(=O)=O)c1 [Compound 134, methyl 3-(((2R,3S)-2-hydroxy-3-(3-(methyl((4-methylthiazol-2-yl)methyl)carbamoyl)benzamido)-4-phenylbutylamino)methyl)-5-(N-methylmethylsulfonamido)benzoate]
Memapsin 2; 20 minutes pre-incubation
  Ki: < 300 nM
[1]; [2]
  IC50: 1000 to 5000 nM

## COc1cccc(CNC[C@@H](O)[C@H](Cc2ccccc2)NC(=O)c2cc(C(=O)N(C)Cc3nc(C)cs3)cc(-n3ccnc3)c2)c1 [Compound 262, N1-((2S,3R)-3-hydroxy-4-(3-methoxybenzylamino)-1-phenylbutan-2-yl)-5-(1H-imidazol-1-yl)-N3-methyl-N3-((4-methylthiazol-2-yl)methyl)isophthalamide]
Memapsin 2; fluorogenic substrate FS-2
  Ki: < 300 nM
[1]; [2]
  IC50: < 1000 nM

## Cc1csc(CNC(=O)c2cccc(C(=O)N[C@@H](Cc3ccccc3)[C@H](O)CNCc3cc(C(C)C)c(C)nc3C)c2)n1 [Compound 93, N1-((2S,3R)-3-hydroxy-4-((5-isopropyl-2,6-dimethylpyridin-3-yl)methylamino)-1-phenylbutan-2-yl)-N3-((4-methylthiazol-2-yl)methyl)isophthalamide]
Memapsin 2; 20 minutes pre-incubation
  Ki: 301 to 500 nM
[1]; [2]
  IC50: < 1000 nM

## COC(=O)c1cccc(CNC[C@@H](O)[C@H](Cc2ccccc2)NC(=O)c2cc(C(=O)N[C@H](C)c3ccccc3)cc(N(C)S(C)(=O)=O)c2)c1 [Compound 96, methyl 3-(((2R,3S)-2-hydroxy-3-(3-(N-methylmethylsulfonamido)-5-((R)-1-phenylethylcarbamoyl)benzamido)-4-phenylbutylamino)methyl)benzoate]
Memapsin 2; 20 minutes pre-incubation
  Ki: < 300 nM
[1]; [2]
  IC50: < 1000 nM

## COc1cccc(CNC[C@@H](O)[C@H](Cc2ccccc2)NC(=O)c2cccc(C(=O)NCc3nccc(C)n3)c2)c1 [Compound 102, N1-((2S,3R)-3-hydroxy-4-(3-methoxybenzylamino)-1-phenylbutan-2-yl)-N3-((4-methylpyrimidin-2-yl)methyl)isophthalamide]
Memapsin 2; 20 minutes pre-incubation
  Ki: > 501 nM
[1]; [2]
  IC50: > 5000 nM

## COc1cc(CNC[C@@H](O)[C@H](Cc2ccccc2)NC(=O)c2cccc(C(=O)N(C)Cc3nc(C)cs3)c2)cc(N(C)C)c1 [Compound 224, N1-((2S,3R)-4-(3-(dimethylamino)-5-methoxybenzylamino)-3-hydroxy-1-phenylbutan-2-yl)-N3-methyl-N3-((4-methylthiazol-2-yl)methyl)isophthalamide]
Memapsin 2; fluorogenic substrate FS-2
  Ki: < 300 nM
[1]; [2]
  IC50: < 1000 nM

## COc1cccc(CNC[C@@H](O)[C@H](Cc2ccccc2)NC(=O)c2cc(C(=O)N(C)Cc3nc(C)cs3)cc(N3CCCCC3)c2)c1 [Compound 230, N1-((2S,3R)-3-hydroxy-4-(3-methoxybenzylamino)-1-phenylbutan-2-yl)-N3-methyl-N3-((4-methylthiazol-2-yl)methyl)-5-(piperidin-1-yl)isophthalamide]
Memapsin 2; fluorogenic substrate FS-2
  Ki: < 300 nM
[1]; [2]
  IC50: < 1000 nM

## COc1cccc(NC[C@@H](O)[C@H](Cc2ccccc2)NC(=O)c2cccc(C(=O)N(C)Cc3nc(C)cs3)c2)c1 [Compound 166, N1-((2S,3R)-3-hydroxy-4-(3-methoxyphenylamino)-1-phenylbutan-2-yl)-N3-methyl-N3-((4-methylthiazol-2-yl)methyl)isophthalamide]
Memapsin 2; 20 minutes pre-incubation
  Ki: > 501 nM
[1]; [2]
  IC50: > 5000 nM

## CC(C)c1cncc(CNC[C@@H](O)[C@H](Cc2ccccc2)NC(=O)c2cccc(C(=O)N(C)Cc3nc(CF)cs3)c2)c1 [Compound 278, N1-((4-(fluoromethyl)thiazol-2-yl)methyl)-N3-((2S,3R)-3-hydroxy-4-((5-isopropylpyridin-3-yl)methylamino)-1-phenylbutan-2-yl)-N1-methylisophthalamide]
Memapsin 2; fluorogenic substrate FS-2
  Ki: < 300 nM
[1]; [2]
  IC50: < 1000 nM

## Cc1csc(CN(C)C(=O)c2cc(C(=O)N[C@@H](Cc3ccccc3)[C@H](O)CNCc3cncc(C(C)C)c3)cc(-c3ncc[nH]3)c2)n1 [Compound 263, N1-((2S,3R)-3-hydroxy-4-((5-isopropylpyridin-3-yl)methylamino)-1-phenylbutan-2-yl)-5-(1H-imidazol-2-yl)-N3-methyl-N3-((4-methylthiazol-2-yl)methyl)isophthalamide]
Memapsin 2; fluorogenic substrate FS-2
  Ki: < 300 nM
[1]; [2]
  IC50: < 1000 nM

## CC(=O)c1cc(C(=O)N[C@@H](Cc2ccccc2)[C@H](O)CNCc2cncc(C(C)C)c2)cc(C(=O)N(C)Cc2nc(C)cs2)c1 [Compound 237, 5-acetyl-N1-((2S,3R)-3-hydroxy-4-((5-isopropylpyridin-3-yl)methylamino)-1-phenylbutan-2-yl)-N3-methyl-N3-((4-methylthiazol-2-yl)methyl)isophthalamide]
Memapsin 2; fluorogenic substrate FS-2
  Ki: < 300 nM
[1]; [2]
  IC50: < 1000 nM

## COC1(OC)CCN(c2cc(C(=O)N[C@@H](Cc3ccccc3)[C@H](O)CNCc3cncc(C(C)C)c3)cc(C(=O)N(C)Cc3nc(C)cs3)c2)C1 [Compound 299, 5-(3,3-dimethoxypyrrolidin-1-yl)-N1-((2S,3R)-3-hydroxy-4-((5-isopropylpyridin-3-yl)methylamino)-1-phenylbutan-2-yl)-N3-methyl-N3-((4-methylthiazol-2-yl)methyl)isophthalamide]
Memapsin 2; fluorogenic substrate FS-2
  Ki: < 300 nM
[1]; [2]
  IC50: < 1000 nM

## Cc1csc(CN(C)C(=O)c2cc(C(=O)N[C@@H](Cc3ccccc3)[C@H](O)CNCc3cccc(C(C)(C)C)c3)cc(N(C)C)c2)n1 [Compound 268, N1-((2S,3R)-4-(3-tert-butylbenzylamino)-3-hydroxy-1-phenylbutan-2-yl)-5-(dimethylamino)-N3-methyl-N3-((4-methylthiazol-2-yl)methyl)isophthalamide]
Memapsin 2; fluorogenic substrate FS-2
  Ki: < 300 nM
[1]; [2]
  IC50: < 1000 nM

## Cc1csc(CN(C)C(=O)c2cc(C(=O)N[C@@H](Cc3ccccc3)[C@H](O)CNCc3cncc(C(C)C)c3)cc(-c3ccccc3C#N)c2)n1 [Compound 154, 2′-cyano-N3-((2S,3R)-3-hydroxy-4-((5-isopropylpyridin-3-yl)methylamino)-1-phenylbutan-2-yl)-N5-methyl-N5-((4-methylthiazol-2-yl)methyl)biphenyl-3,5-dicarboxamide]
Memapsin 2; 20 minutes pre-incubation
  Ki: < 300 nM
[1]; [2]
  IC50: < 1000 nM

## Cc1csc(CN(C)C(=O)c2cccc(C(=O)N[C@@H](Cc3ccccc3)[C@H](O)CNCc3cncc(Br)c3)c2)n1 [Compound 158, N1-((2S,3R)-4-((5-bromopyridin-3-yl)methylamino)-3-hydroxy-1-phenylbutan-2-yl)-N3-methyl-N3-((4-methylthiazol-2-yl)methyl)isophthalamide]
Memapsin 2; 20 minutes pre-incubation
  Ki: < 300 nM
[1]; [2]
  IC50: < 1000 nM
